The record followed here is patent US20180244611A1, “Modulators of the Cystic Fibrosis Transmembrane Conductance Regulator Protein and Methods of Use” (AbbVie S.à.r.l., priority 2017, published 2018).

As a reminder, the EC50 is the concentration that produces a half-maximal response. Low readings indicate greater potency, high ones weaker potency. The term Emax denotes the greatest response seen or fitted, relative to the assay's reference.

For test [1], the target named is T1, F508delCFTR (Homo sapiens, UniProt P13569, DEL508-508).
T1 construct: expressed in transfected cells; host or cells: CFBE41o- human lung-derived epithelial cells (CFBE41o-F508delCFTR-HRP), doxycycline-inducible
T1 sequence (P13569 with tags, fused parts or gaps DEL508-508): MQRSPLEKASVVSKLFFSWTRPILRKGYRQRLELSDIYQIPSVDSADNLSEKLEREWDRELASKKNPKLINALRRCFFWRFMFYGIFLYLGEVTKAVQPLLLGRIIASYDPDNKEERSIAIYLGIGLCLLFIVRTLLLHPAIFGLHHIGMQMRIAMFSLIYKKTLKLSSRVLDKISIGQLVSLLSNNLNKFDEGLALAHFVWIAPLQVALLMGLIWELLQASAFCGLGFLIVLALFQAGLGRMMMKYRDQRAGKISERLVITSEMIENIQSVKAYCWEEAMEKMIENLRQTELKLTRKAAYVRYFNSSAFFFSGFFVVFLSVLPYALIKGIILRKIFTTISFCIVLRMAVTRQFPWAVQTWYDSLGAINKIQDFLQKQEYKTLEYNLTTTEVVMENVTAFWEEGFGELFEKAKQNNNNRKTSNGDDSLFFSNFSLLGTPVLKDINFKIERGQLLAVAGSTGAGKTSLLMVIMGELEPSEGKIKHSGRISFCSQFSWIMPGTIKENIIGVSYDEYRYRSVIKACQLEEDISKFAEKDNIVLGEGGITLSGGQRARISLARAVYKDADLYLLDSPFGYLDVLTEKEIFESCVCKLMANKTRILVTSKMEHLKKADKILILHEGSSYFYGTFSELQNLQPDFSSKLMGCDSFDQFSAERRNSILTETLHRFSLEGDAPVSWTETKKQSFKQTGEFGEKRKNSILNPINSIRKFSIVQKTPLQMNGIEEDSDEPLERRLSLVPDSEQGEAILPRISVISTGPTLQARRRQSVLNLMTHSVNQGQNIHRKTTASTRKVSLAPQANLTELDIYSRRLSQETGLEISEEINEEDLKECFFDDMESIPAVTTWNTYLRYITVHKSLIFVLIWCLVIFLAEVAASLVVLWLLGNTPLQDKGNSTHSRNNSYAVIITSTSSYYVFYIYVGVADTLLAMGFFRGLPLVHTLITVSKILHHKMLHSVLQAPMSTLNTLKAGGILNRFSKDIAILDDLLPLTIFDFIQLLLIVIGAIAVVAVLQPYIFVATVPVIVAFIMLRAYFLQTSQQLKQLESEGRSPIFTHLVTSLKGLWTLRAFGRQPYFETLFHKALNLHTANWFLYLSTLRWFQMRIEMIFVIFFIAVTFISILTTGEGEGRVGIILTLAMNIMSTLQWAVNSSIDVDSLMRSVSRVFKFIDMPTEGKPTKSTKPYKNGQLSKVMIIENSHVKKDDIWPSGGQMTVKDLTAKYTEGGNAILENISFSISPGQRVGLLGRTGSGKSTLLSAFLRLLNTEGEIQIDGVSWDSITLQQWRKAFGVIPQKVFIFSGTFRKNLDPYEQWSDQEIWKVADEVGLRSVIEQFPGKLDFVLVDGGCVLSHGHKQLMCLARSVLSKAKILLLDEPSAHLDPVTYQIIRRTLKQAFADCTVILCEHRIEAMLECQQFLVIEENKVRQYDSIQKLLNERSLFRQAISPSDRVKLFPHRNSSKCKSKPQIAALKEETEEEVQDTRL
Briefly: Cell Surface Expression-Horse Radish Peroxidase (CSE-HRP) assay, test compound with co-corrector.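 On Maximum % activity (with co-corrector): percent of 2 µM positive control corrector over DMSO; co-corrector is that same compound.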 Type of test: cell-based. Conditions: for Maximum % activity (with co-corrector): maximum at any tested concentration. A digest of the protocol: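 CFBE41o- cells expressing F508delCFTR with HRP in the fourth exofacial loop, induced with 0.5 μg/mL doxycycline for 72 h, then treated 18-24 h at 33° C. with compound (8 points, top 20 μM, 3-fold) plus 2 μM co-corrector. Surface HRP read by luminol luminescence; activity normalised to positive control, EC50 from variable-slope sigmoidal fit.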

In test [2] the target is T1, F508delCFTR. In words: Cell Surface Expression-Horse Radish Peroxidase (CSE-HRP) assay, test compound without co-corrector.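 On Emax: percent of on-plate 2 µM positive control corrector response over DMSO.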 The test is classed as cell-based. As to conditions: for Emax: maximum at any tested concentration, without co-corrector; for EC50: test compound without co-corrector. A digest of the protocol: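 CFBE41o- cells expressing F508delCFTR with HRP in the fourth exofacial loop, induced with 0.5 μg/mL doxycycline for 72 h at 37° C, then exposed to compound alone for 18-24 h at 33° C, 8-point 3-fold series from 20 μM. Surface HRP read by luminol luminescence, normalized to positive corrector control versus DMSO; EC50 from variable-slope sigmoidal fit of three replicate plates.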

The mark [3] stands for this setting: normalized to positive control, with 2 μM co-corrector.
Setting [4] is: CSE-HRP assay, test compound with 2 μM co-corrector.
Setting [5] is: normalized to on-plate positive control, with 2 μM co-corrector.
[6] abbreviates: normalized to on-plate positive control.

Where only a bound is given, the exact number is not on record here.

For `COc1cccc2c1CCC2C(=O)NS(=O)(=O)c1ccc(F)cc1F` (stereo not drawn) [III-77], the “Maximum % activity (with co-corrector)” value at F508delCFTR [1] (setting [3]) is “+ (<150)”. In addition, the concentration for a half-maximal effect (EC50) on F508delCFTR [1] (with 2 μM co-corrector) and at F508delCFTR [2] was not below 10 µM each time. At F508delCFTR [2] (normalized to positive control), this molecule registered a maximum response (Emax) of less than 50%.

For the molecule `COc1cccc2c1CCC2C(=O)NS(=O)(=O)c1cccnc1` (stereo not drawn) [III-81], the “Maximum % activity (with co-corrector)” value at F508delCFTR [1] (setting [3]) is reported as “+ (<150)”. The half-maximal effective concentration (EC50) at F508delCFTR [1] (with 2 μM co-corrector) and at F508delCFTR [2] was not below 10 µM throughout. On F508delCFTR [2] (normalized to positive control), this molecule showed a maximal response (Emax) of less than 50%.

For the molecule `COc1cccc2c1CCC2C(=O)NS(=O)(=O)c1c(CO)c(C)nn1C` (stereo not drawn) [III-69], the “Maximum % activity (with co-corrector)” value on F508delCFTR [1] (setting [3]) is “+ (<150)”. The EC50 on F508delCFTR [1] (with 2 μM co-corrector) and at F508delCFTR [2] was not below 10 µM each time. Further, on F508delCFTR [2] (normalized to positive control), the maximum response (Emax) is less than 50%.

In the case of `CCC1(C(=O)NS(=O)(=O)c2cccc(Cl)c2C(=O)O)CCc2c(Cl)cccc21` (stereo not drawn) [III-179], the concentration giving a half-maximal response (EC50) at F508delCFTR [1] (setting [4]) and on F508delCFTR [2] (CSE-HRP assay) was not below 10 µM each time. In addition, the “Maximum % activity (with co-corrector)” value on F508delCFTR [1] (setting [5]) was “+ (<150)”. This molecule gave a maximum response (Emax) at F508delCFTR [2] (setting [6]) of less than 50%.

On to `COc1ccc(CN2CCCC2)c2c1C(C(=O)NS(=O)(=O)c1cccc3ccccc13)CC2` (stereo not drawn) [III-188], for which the results for the 50% effective concentration (EC50) on F508delCFTR [1] (setting [4]) and on F508delCFTR [2] (CSE-HRP assay) were 3 to 10 µM and not below 10 µM, respectively. Also, at F508delCFTR [1] (setting [5]), the “Maximum % activity (with co-corrector)” value was “+ (<150)”. The molecule also returned a maximal effect (Emax) on F508delCFTR [2] (setting [6]) of less than 50%.

Take `COc1ccc(C2CCC2)c2c1[C@@H](C(=O)NS(=O)(=O)c1cccc3ccccc13)C2` (single isomer, unassigned) [Example I-106]: the “Maximum % activity (with co-corrector)” value at F508delCFTR [1] (setting [3]) is listed as “+++ (≥350)”. The concentration for a half-maximal effect (EC50) at F508delCFTR [1] (with 2 μM co-corrector) is less than 3 µM; at F508delCFTR [2], 3 to 10 µM. On F508delCFTR [2] (normalized to positive control), this molecule displayed an Emax not below 150%.

As to `CCC1(C(=O)NS(=O)(=O)c2cccc(Cl)c2C)CCc2c(Cl)cccc21` (stereo not drawn) [III-156], the EC50 on F508delCFTR [1] (setting [4]) is less than 3 µM; at F508delCFTR [2] (CSE-HRP assay), 3 to 10 µM. Also, the “Maximum % activity (with co-corrector)” value at F508delCFTR [1] (setting [5]) was “++ (≥150 and <350)”. On F508delCFTR [2] (setting [6]), the Emax lay in the range of 50 to 150%.

Consider `COc1ccc(C2CCC2)c2c1[C@@H](C(=O)NS(=O)(=O)c1cccc3cnn(C)c13)CC2` (single isomer, unassigned) [Example I-141], for which, on F508delCFTR [1] (setting [3]), the “Maximum % activity (with co-corrector)” value is “+++ (≥350)”. In addition, the half-maximal effective concentration (EC50) on F508delCFTR [1] (with 2 μM co-corrector) was less than 3 µM; on F508delCFTR [2], 3 to 10 µM. Moreover, the maximal effect (Emax) on F508delCFTR [2] (normalized to positive control) is not below 150%.

`CC1(C(=O)NS(=O)(=O)c2cccc3ccccc23)CCc2cccc(C3CCC3)c21` (stereo not drawn) [Example I-83, 7-cyclobutyl-1-methyl-N-(naphthalene-1-sulfonyl)-2,3-dihydro-1H-indene-1-carboxamide]: the “Maximum % activity (with co-corrector)” value at F508delCFTR [1] (setting [3]) was “+++ (≥350)”. In addition, the concentration for a half-maximal effect (EC50) at F508delCFTR [1] (with 2 μM co-corrector) and at F508delCFTR [2] was less than 3 µM each time. In addition, the maximal response (Emax) at F508delCFTR [2] (normalized to positive control) was not below 150%.

In the case of `COc1cccc2c1CCC2C(=O)NS(=O)(=O)c1cc(-c2nc3c([nH]2)c(=O)n(C)c(=O)n3C)ccc1Cl` (stereo not drawn) [III-58], the “Maximum % activity (with co-corrector)” value at F508delCFTR [1] (setting [3]) is “++ (≥150 and <350)”. For the same molecule, the EC50 at F508delCFTR [1] (with 2 μM co-corrector) and at F508delCFTR [2] was 3 to 10 µM throughout. For the same molecule, the maximal effect (Emax) at F508delCFTR [2] (normalized to positive control) was less than 50%.

`CCC1(C(=O)NS(=O)(=O)N2CCCc3ccccc32)CCc2c(Cl)cccc21` (stereo not drawn) [Example II-80, 4-chloro-N-(3,4-dihydroquinoline-1(2H)-sulfonyl)-1-ethyl-2,3-dihydro-1H-indene-1-carboxamide]: the “Maximum % activity (with co-corrector)” value at F508delCFTR [1] (setting [3]) is recorded as “+ (<150)”. Further, the half-maximal effective concentration (EC50) on F508delCFTR [1] (with 2 μM co-corrector) and on F508delCFTR [2] was not below 10 µM in each case. Besides, at F508delCFTR [2] (normalized to positive control), the Emax was less than 50%.

For the molecule `O=C(NS(=O)(=O)c1cccc2ccccc12)C1CCCc2c(OCc3ccccc3)ccc(Br)c21` (stereo not drawn) [II-89], the “Maximum % activity (with co-corrector)” value on F508delCFTR [1] (setting [3]) is “++ (≥150 and <350)”. Moreover, the EC50 at F508delCFTR [1] (with 2 μM co-corrector) and at F508delCFTR [2] was 3 to 10 µM throughout. On F508delCFTR [2] (normalized to positive control), this molecule showed an Emax of 50 to 150%.
